Assay results reported in ChEMBL document CHEMBL3758109, “A novel triazole derivative of betulinic acid induces extrinsic and intrinsic apoptosis in human leukemia HL-60 cells” (Eur J Med Chem, 2016).
pIC50: −log10 of the molar value. Active and inactive are the calls of the source. The rule behind the calls is not given here.

Tests used:
[1] = Cytotoxicity against human HL60 cells assessed as cell growth inhibition at 10 uM after 48 hrs by MTT assay; format: functional; conditions: HL-60, 48 h, read-out: GI
[2] = Cytotoxicity against human MIAPaCa2 cells assessed as cell growth inhibition at 10 uM after 48 hrs by MTT assay; format: functional; conditions: MIA PaCa-2, 48 h, read-out: GI
[3] = Cytotoxicity against human PC3 cells assessed as cell growth inhibition at 10 uM after 48 hrs by MTT assay; format: functional; conditions: PC-3, 48 h, read-out: GI
A549 [4] = assay: Cytotoxicity against human A549 cells assessed as cell growth inhibition at 10 uM after 48 hrs by MTT assay; format: functional; conditions: A549, 48 h, read-out: GI
[5] = Cytotoxicity against human HL60 cells assessed as cell growth inhibition after 48 hrs by MTT assay; format: functional, cell-based; conditions: HL-60, 48 h
[6] = Cytotoxicity against human MIAPaCa2 cells assessed as cell growth inhibition after 48 hrs by MTT assay; format: functional, cell-based; conditions: MIA PaCa-2, 48 h
[7] = Cytotoxicity against human PC3 cells assessed as cell growth inhibition after 48 hrs by MTT assay; format: functional, cell-based; conditions: PC-3, 48 h
A549 [8] = assay: Cytotoxicity against human A549 cells assessed as cell growth inhibition after 48 hrs by MTT assay; format: functional, cell-based; conditions: A549, 48 h
HL-60 [9] = assay: Induction of apoptosis in human HL60 cells at 5 uM after 24 hrs by propidium iodide staining based flow cytometry (reference value: 3%); format: functional
HL-60 [10] = assay: Induction of apoptosis in human HL60 cells at 10 uM after 24 hrs by propidium iodide staining based flow cytometry (reference value: 3%); format: functional
HL-60 [11] = assay: Induction of apoptosis in human HL60 cells at 20 uM after 24 hrs by propidium iodide staining based flow cytometry (reference value: 3%); format: functional
[12] = Cell cycle arrest in human HL60 cells assessed as accumulation at G1 phase at 5 uM after 24 hrs by propidium iodide staining based flow cytometry (reference value: 46%); format: functional; conditions: HL-60
[13] = Cell cycle arrest in human HL60 cells assessed as accumulation at G1 phase at 10 uM after 24 hrs by propidium iodide staining based flow cytometry (reference value: 46%); format: functional; conditions: HL-60
[14] = Cell cycle arrest in human HL60 cells assessed as accumulation at G1 phase at 20 uM after 24 hrs by propidium iodide staining based flow cytometry (reference value: 46%); format: functional; conditions: HL-60
[15] = Cell cycle arrest in human HL60 cells assessed as accumulation at S phase at 5 uM after 24 hrs by propidium iodide staining based flow cytometry (reference value: 48%); format: functional; conditions: HL-60
[16] = Cell cycle arrest in human HL60 cells assessed as accumulation at S phase at 10 uM after 24 hrs by propidium iodide staining based flow cytometry (reference value: 48%); format: functional; conditions: HL-60
[17] = Cell cycle arrest in human HL60 cells assessed as accumulation at S phase at 20 uM after 24 hrs by propidium iodide staining based flow cytometry (reference value: 48%); format: functional; conditions: HL-60
[18] = Cell cycle arrest in human HL60 cells assessed as accumulation at G2/M phase at 5 uM after 24 hrs by propidium iodide staining based flow cytometry (reference value: 6%); format: functional; conditions: HL-60
[19] = Cell cycle arrest in human HL60 cells assessed as accumulation at G2/M phase at 10 uM after 24 hrs by propidium iodide staining based flow cytometry (reference value: 6%); format: functional; conditions: HL-60
[20] = Cell cycle arrest in human HL60 cells assessed as accumulation at G2/M phase at 20 uM after 24 hrs by propidium iodide staining based flow cytometry (reference value: 6%); format: functional; conditions: HL-60
HL-60 [21] = assay: Induction of apoptosis in human HL60 cells assessed as down regulation of Bcl-2 after 24 hrs by Western blot; format: functional, cell-based
HL-60 [22] = assay: Induction of apoptosis in human HL60 cells assessed as up regulation of Bax after 24 hrs by Western blot; format: functional, cell-based
HL-60 [23] = assay: Induction of apoptosis in human HL60 cells assessed as decrease in Bcl-2/Bax ratio after 24 hrs by Western blot; format: functional, cell-based
HL-60 [24] = assay: Induction of apoptosis in human HL60 cells assessed as activation of caspase- 3 at 5 to 20 uM after 24 hrs by Western blot; format: functional, cell-based
HL-60 [25] = assay: Induction of apoptosis in human HL60 cells assessed as activation of caspase- 6 at 5 to 20 uM after 24 hrs by Western blot; format: functional, cell-based
HL-60 [26] = assay: Induction of apoptosis in human HL60 cells assessed as activation of caspase- 7 at 5 to 20 uM after 24 hrs by Western blot; format: functional, cell-based
HL-60 [27] = assay: Induction of apoptosis in human HL60 cells assessed as cleavage of PARP-1 at 5 to 20 uM after 24 hrs by Western blot; format: functional, cell-based
HL-60 [28] = assay: Induction of apoptosis in human HL60 cells assessed as activation of procaspase- 9 at 5 to 20 uM after 24 hrs by Western blot; format: functional, cell-based
HL-60 [29] = assay: Induction of apoptosis in human HL60 cells assessed as activation of procaspase- 8 at 5 to 20 uM after 24 hrs by Western blot; format: functional, cell-based
HL-60 [30] = assay: Induction of mitochondrial potential loss in human HL60 cells after 24 hrs by rhodamine-123 staining based flow cytometry (reference value: 3%); format: functional, cell-based
HL-60 [31] = assay: Induction of mitochondrial potential loss in human HL60 cells at 5 uM after 24 hrs by rhodamine-123 staining based flow cytometry (reference value: 3%); format: functional
HL-60 [32] = assay: Induction of mitochondrial potential loss in human HL60 cells at 10 uM after 24 hrs by rhodamine-123 staining based flow cytometry (reference value: 3%); format: functional
HL-60 [33] = assay: Induction of mitochondrial potential loss in human HL60 cells at 20 uM after 24 hrs by rhodamine-123 staining based flow cytometry (reference value: 3%); format: functional

C=C(C)[C@@H]1CC[C@]2(C(=O)OCc3cn(-c4ccc(OC)cc4)nn3)CC[C@]3(C)[C@H](CC[C@@H]4[C@@]5(C)CC[C@H](O)C(C)(C)[C@@H]5CC[C@]43C)[C@@H]12
inhibition of growth at 10 µM [1]: 8% | inhibition of growth at 10 µM [2]: 36% | inhibition of growth at 10 µM [3]: 2% | inhibition of growth at 10 µM (A549 [4]): 13% | pIC50 [5]: 4.52 | pIC50 [6]: 4.66 | pIC50 [7]: < 4.00 | pIC50 (A549 [8]): < 4.00

C=C(C)[C@@H]1CC[C@]2(C(=O)OCc3cn(-c4ccc5c(c4)OCO5)nn3)CC[C@]3(C)[C@H](CC[C@@H]4[C@@]5(C)CC[C@H](O)C(C)(C)[C@@H]5CC[C@]43C)[C@@H]12
inhibition of growth at 10 µM [1]: 53% | inhibition of growth at 10 µM [2]: 56% | inhibition of growth at 10 µM [3]: 49% | inhibition of growth at 10 µM (A549 [4]): 53% | pIC50 [5]: 5.10 | pIC50 [6]: 5.10 | pIC50 [7]: 5.05 | pIC50 (A549 [8]): 5.10

C=C(C)[C@@H]1CC[C@]2(C(=O)OCc3cn(-c4cccnc4Cl)nn3)CC[C@]3(C)[C@H](CC[C@@H]4[C@@]5(C)CC[C@H](O)C(C)(C)[C@@H]5CC[C@]43C)[C@@H]12
inhibition of growth at 10 µM [1]: 46% | inhibition of growth at 10 µM [2]: 55% | inhibition of growth at 10 µM [3]: 30% | inhibition of growth at 10 µM (A549 [4]): 40% | pIC50 [5]: 4.74 | pIC50 [6]: 5.10 | pIC50 [7]: 4.16 | pIC50 (A549 [8]): 4.30

C=C(C)[C@@H]1CC[C@]2(C(=O)OCc3cn(-c4cc(F)c(F)cc4Br)nn3)CC[C@]3(C)[C@H](CC[C@@H]4[C@@]5(C)CC[C@H](O)C(C)(C)[C@@H]5CC[C@]43C)[C@@H]12
inhibition of growth at 10 µM [1]: 48% | inhibition of growth at 10 µM [2]: 36% | inhibition of growth at 10 µM [3]: 17% | inhibition of growth at 10 µM (A549 [4]): 10% | pIC50 [5]: 4.92 | pIC50 [6]: 4.57 | pIC50 [7]: 4.00 | pIC50 (A549 [8]): 4.00

C=C(C)[C@@H]1CC[C@]2(C(=O)O)CC[C@]3(C)[C@H](CC[C@@H]4[C@@]5(C)CC[C@H](O)C(C)(C)[C@@H]5CC[C@]43C)[C@@H]12 [BETULINIC ACID]
inhibition of growth at 10 µM [1]: 69% | inhibition of growth at 10 µM [2]: 70% | inhibition of growth at 10 µM [3]: 70% | inhibition of growth at 10 µM (A549 [4]): 68% | pIC50 [5]: 5.10 | pIC50 [6]: 5.15 | pIC50 [7]: 5.15 | pIC50 (A549 [8]): 5.10

C=C(C)[C@@H]1CC[C@]2(C(=O)OCc3cn(-c4ccccc4OC)nn3)CC[C@]3(C)[C@H](CC[C@@H]4[C@@]5(C)CC[C@H](O)C(C)(C)[C@@H]5CC[C@]43C)[C@@H]12
inhibition of growth at 10 µM [1]: 34% | inhibition of growth at 10 µM [2]: 50% | inhibition of growth at 10 µM [3]: 3% | inhibition of growth at 10 µM (A549 [4]): 12% | pIC50 [5]: 4.54 | pIC50 [6]: 5.05 | pIC50 [7]: < 4.00 | pIC50 (A549 [8]): < 4.00

C=C(C)[C@@H]1CC[C@]2(C(=O)OCc3cn(-c4ccccc4)nn3)CC[C@]3(C)[C@H](CC[C@@H]4[C@@]5(C)CC[C@H](O)C(C)(C)[C@@H]5CC[C@]43C)[C@@H]12
inhibition of growth at 10 µM [1]: 11% | inhibition of growth at 10 µM [2]: 39% | inhibition of growth at 10 µM [3]: 25% | inhibition of growth at 10 µM (A549 [4]): 27% | pIC50 [5]: 4.57 | pIC50 [6]: 4.74 | pIC50 [7]: 4.74 | pIC50 (A549 [8]): 4.74

C=C(C)[C@@H]1CC[C@]2(C(=O)OCc3cn(-c4ccc(F)cc4)nn3)CC[C@]3(C)[C@H](CC[C@@H]4[C@@]5(C)CC[C@H](O)C(C)(C)[C@@H]5CC[C@]43C)[C@@H]12
inhibition of growth at 10 µM [1]: 69% | inhibition of growth at 10 µM [2]: 75% | inhibition of growth at 10 µM [3]: 62% | inhibition of growth at 10 µM (A549 [4]): 63% | pIC50 [5]: 5.15 | pIC50 [6]: 5.30 | pIC50 [7]: 5.15 | pIC50 (A549 [8]): 5.15 | Activity (HL-60 [9]): 5% | Activity (HL-60 [10]): 7% | Activity (HL-60 [11]): 14% | Activity [12]: 48% | Activity [13]: 53% | Activity [14]: 90% | Activity [15]: 47% | Activity [16]: 44% | Activity [17]: 9% | Activity [18]: 5% | Activity [19]: 3% | Activity [20]: 1% | Activity (HL-60 [21]): Dose-dependent effect | Activity (HL-60 [22]): Active | Activity (HL-60 [23]): Active | Activity (HL-60 [24]): Active | Activity (HL-60 [25]): Active | Activity (HL-60 [26]): Active | Activity (HL-60 [27]): Active | Activity (HL-60 [28]): Active | Activity (HL-60 [29]): Active | Activity (HL-60 [30]): Dose-dependent effect | Activity (HL-60 [31]): 7% | Activity (HL-60 [32]): 18% | Activity (HL-60 [33]): 27%

C=C(C)[C@@H]1CC[C@]2(C(=O)OCc3cn(-c4ccc(OC)c(OC)c4)nn3)CC[C@]3(C)[C@H](CC[C@@H]4[C@@]5(C)CC[C@H](O)C(C)(C)[C@@H]5CC[C@]43C)[C@@H]12
inhibition of growth at 10 µM [1]: 7% | inhibition of growth at 10 µM [2]: 8% | inhibition of growth at 10 µM [3]: 8% | inhibition of growth at 10 µM (A549 [4]): 6% | pIC50 [5]: 5.10 | pIC50 [6]: 4.68 | pIC50 [7]: 4.96 | pIC50 (A549 [8]): 4.80
